Test results reported in a melting point compilation (Tetko et al.; mined from patent text by program, amines drawn as free bases though some values may be those of a salt).

Structure (SMILES)	melting point
CCOC(=O)C(=CNc1ccc([N+](=O)[O-])cc1O)C(=O)c1cc(F)c(F)c(F)c1F	225 °C
COc1cc2nc(Cn3cnc4c(N)ncnc43)n(-c3ccccc3Cl)c(=O)c2cc1OC	282 to 283 °C
O=S(=O)(CS(=O)(=O)/C(F)=C(/F)c1c(F)c(F)c(F)c(F)c1F)/C(F)=C(/F)c1c(F)c(F)c(F)c(F)c1F	193 to 195 °C
CC1Cc2cc3c(cc2C(c2ccc([N+](=O)[O-])cc2)=NN1c1nc(=O)n(C)s1)OCO3 (stereo not drawn)	177 to 180 °C
COc1ccc(-c2ccc(C(=O)Nc3ccc4cc(CN5C(C)(C)CCCC5(C)C)ccc4c3)cc2)cc1	212 to 214 °C
CN1CCC2(CC1)c1ccccc1Oc1c(O)cccc12	171 to 173 °C
Cc1nc(C)n(-c2cc([C@@H]3C[C@H]3c3nc4ccccc4n3C)nc(C(N)=O)n2)n1 (relative stereo)	119 to 121 °C
CCOc1cc2c(=O)cc(C(=O)O)n(CC)c2ccc1=O	227 to 228 °C
CCc1nc2c(cnn2CC)c(NC2CCOCC2)c1CNC(=O)c1cccc(C(=O)NCc2ccc(Cl)c(Br)c2)c1	115 to 117 °C
CCOc1nn(C(=O)NS(=O)(=O)Nc2c(C)cccc2C(=O)CC)c(=O)n1C	134 °C
COc1ccc(CCN(C)c2cc(C)sc2CO)cc1OC	149 °C
CC(C)c1cc(C(=O)Nc2ccc(C(=O)O)c(O)c2)oc1C(C)C	179 to 180 °C
CCOC(=O)c1cc2ccc(Oc3ccc(N)cc3)cc2oc1=O	136 to 138 °C
C[C@@H](Oc1cncc(C(=O)Nc2ccc(C#N)cc2)c1)c1ccc(F)cc1	151 to 152 °C
COC(C)=NS(=O)(=O)c1nc(-c2ccc(O)cc2)ns1	190 to 192 °C
COc1cccc(Cc2nc3n(-c4c(Cl)cc(Cl)cc4Cl)[nH]c(C(C)C)c-3c(=O)n2)c1	204 to 205 °C
C#C[C@](C)(O)CCc1c(C)c(OC(C)=O)c(C)c(C)c1OC(C)=O	96 to 102 °C
Cc1cc(-c2cc3c(cc2F)c(=O)c(C(=O)O)cn3C2CC2)cc(C)n1	300 to 302 °C
CCCCOc1nc2ncnn2c2c1cnc1c2cnn1CC	140 to 142 °C

Structure (SMILES)	melting point
O=S1CCN(c2ccc(-n3cc(CN=C=S)nn3)cc2F)CC1	182 to 184 °C
CNc1cc(F)ccc1C(=O)CS(C)=O (stereo not drawn)	129 to 134 °C
Cn1cc(C(=O)O)c(=O)c2cc3cc(F)c(N4CCNC(c5cccs5)C4)cc3nc21 (racemic)	268 to 270 °C
CCC(CC)N(Cc1ccc(C(=O)OC)cc1)S(=O)(=O)c1ccc(F)cc1	78 to 80 °C
CCOc1cc(-c2cc(C(F)(F)F)n3ncc(C(=O)Nc4nc(C)c(S(=O)(=O)NC(C)(CO)CO)s4)c3n2)ccc1C(F)(F)F	220 °C
COc1ccc(OC)c(COc2ccc(NC=O)c(C(N)=O)c2)c1	135 to 138 °C
C=CCc1cn2c(=O)c(C(=O)OCC)cnc2c2cc(OC)ccc12	182 to 186 °C
Cn1c(=O)c2[nH]c(CCCC(=O)O)nc2n(C)c1=O	254 to 255 °C
COc1cccc(C2(C=O)CCNCC2)c1OC	123 °C
COc1ncnc(-c2cc([N+](=O)[O-])c(C#N)cc2F)c1Cl	161 to 162 °C
COc1cccc2c(Cl)c(C)c(C)nc12	130 °C
C=CCc1cnc2c([N+](=O)[O-])cccc2c1Cl	64 to 66 °C
O=C1c2ccc(Br)cc2OCC1n1ccnc1 (stereo not drawn)	201 to 203 °C
COc1cc(OC)c2c(=O)[nH]c(-c3cccc(N4CCN(C(C)C)CC4)c3)nc2c1	251 to 253 °C
CC(C)(C)OC(=O)NCC1(O)CCNCC1	136 to 138 °C
CCN1C(=O)C(=CC=C2C=C3N(C)c4ccccc4N3CC2)SC1=S	275 °C
O=C(O)c1cc(=O)c(Oc2ccc(C3CCCCC3)cc2)co1	187 to 190 °C
COC(=O)COc1cc(Cl)c(C(=O)CBr)cc1Cl	89 to 90 °C
COC(=O)Cn1c(C)ccc1C	44 to 46 °C

Structure (SMILES)	melting point
Cc1nc2cc(NC(=O)c3cc4cc(Cl)ncc4n3Cc3cccc(F)c3)ccc2n1C	240 to 242 °C
CCCCc1nc(C(O)C(C)(C)C)c(C#N)n1Cc1ccc(-c2ccccc2-c2nnnn2C(c2ccccc2)(c2ccccc2)c2ccccc2)cc1 (stereo not drawn)	134 to 135 °C
COc1ccc2c(c1)Sc1cc([N+](=O)[O-])ccc1N2C(C)=O	156 to 157 °C
Cc1oc(-c2ccc(S(C)(=O)=O)cc2)c(Oc2ccc(F)cc2)c(=O)c1Cl	279 °C
CC1(C)O[C@H]2[C@H](OCc3ccccc3)O[C@H](C(=O)O)[C@H]2O1	79 °C
CCOC(=O)c1c[nH]c2c1-c1ncccc1CCC2	96 to 98 °C
O=C(CCCl)N1Cc2cccc3[nH]cc(c23)C1	158 to 161 °C
COC(=O)C1Cc2cc3c(cc2C(c2ccc([N+](=O)[O-])cc2)=NN1)OCO3 (stereo not drawn)	161 to 164 °C
COc1cc(N2CCN(C[C@@H](O)CO)CC2)ccc1Nc1ncc2ccc(-c3ccccc3OC)n2n1	83 to 90 °C
C#CCOc1cc(N)ccc1C	75 to 77 °C
O=C1C(=O)c2ccc(-c3cccnc3)cc2C2=C1SCC1(CCNCC1)O2	213 to 215 °C
S=c1n(-c2ccc(Cl)cc2Cl)nc2n1CCCC2	118 to 120 °C
CCCn1c(=O)c2c(NC)n[nH]c2n(CCOCc2ccccc2)c1=O	224 to 226 °C
COc1ccc(-c2ccc(C=NO)o2)cc1OC	140 to 142 °C
CNC(=O)c1c(NC(=O)c2cc(C(F)(F)F)nn2-c2ncccc2Cl)c(Br)cc2cn[nH]c12	> 255 °C
COC(=S)N=C(N)SC	75 to 76 °C
O=c1ccn(CCO)c(C(O)c2cccnc2)c1O (stereo not drawn)	189 to 190 °C
CCOc1cc(N)c(Cl)cc1C(=O)NC[C@H]1CN(CC2CCN(C(=O)N3CCC3)CC2)CCO1	166 to 168 °C
CC(CCCO[Si](C)(C)C(C)(C)C)C1CCC2C3=CC=C4C(C)(C)C(O[Si](C)(C)C(C)(C)C)CCC4(C)C3CCC21C (stereo not drawn)	98 to 106 °C

Second part, the molecule after the results:

melting point	Structure (SMILES)
84 to 86 °C	COC(=O)c1cccc(C(=O)Cc2cccc(Br)n2)c1
76 to 78 °C	COc1ccccc1COc1ccc(S(=O)(=O)c2ccc(C)nc2Br)cc1
179 °C	Cc1cccc(C2=CCN(c3ccc(O)nn3)CC2)c1
122 to 124 °C	COC(=O)[C@H](CCSC)NC(=O)c1ccc(/C=C(/Cn2ccnc2)c2nccs2)cc1-c1ccccc1
64 °C	COC(=O)Cc1ccc(OCCNC(=O)C2Cc3c(OC)cccc3N2S(=O)(=O)c2ccc(-c3cccc(C(F)(F)F)c3)cc2)cc1 (stereo not drawn)
112 to 115 °C	Cn1nc(-c2c(Cl)cccc2Cl)nc1Cc1ccc(Cl)cc1
139 to 141 °C	O=C(O)Cc1ccc(S(=O)c2ccc(Cl)cc2)cc1 (stereo not drawn)
74 to 76 °C	FCc1cccc(C#CCCc2nc3ccccc3s2)n1
63 to 65 °C	COc1ccc2cc(CCl)ccc2c1
143 to 145 °C	O=C(O)CCn1nnnc1-c1ccc2c(c1)S(=O)(=O)c1ccccc1C2=O
172 to 173 °C	Cc1nc(-c2ccc(C(F)(F)F)cc2)sc1CN(C)c1ccc(OCC(=O)O)c(I)c1
191 to 193 °C	CN(C1CCCCC1)S(=O)(=O)c1ccc(Cn2cnc3ccccc32)cc1
126 to 128 °C	Cc1c(-c2ccccc2)oc2c(C(=O)N(C)CCCl)cccc2c1=O
320 °C	O=C1Nc2cc(Cl)ccc2C(=O)C1c1csc2ccccc12 (stereo not drawn)
144 to 145 °C	NC(=O)c1ccc(-c2cccc3cc(Cc4cccc(C(F)(F)F)c4)sc23)cn1
127 to 129 °C	FC(F)(F)c1cccc(C=Cc2ccccc2)c1
248 °C	O=C(Nc1cc(-c2ccccc2)on1)Nc1cccc2c1C1CCCCN1C2=O (stereo not drawn)
193 to 195 °C	CC(=O)NC[C@H]1CN(c2ccc(/C=C3/C(=O)N(C)c4ccccc43)cc2)C(=O)O1
> 300 °C	O=c1c(Cl)nc2ccccc2n1-c1ccc(Cl)cc1
132 °C	c1ccc(CNc2ccnc3ccccc23)cc1
242 to 244 °C	COc1cccc(NC(=O)C2=C(O)c3ccc4ccccc4c3S(=O)(=O)N2C)c1

melting point	Structure (SMILES)
154 °C	Cn1c(=O)c(Cc2ccccc2F)cc2cnc(S(C)(=O)=O)nc21
220 °C	COc1nc2ccccc2c(=O)n1O
146 to 148 °C	CC(C)CC(NC(=O)Cc1ccc(NC(=O)Nc2ccccc2)cc1)c1ncc(CCC(=O)O)s1 (stereo not drawn)
190 to 192 °C	O=c1c(-c2cccc(Cl)c2)c[nH]n1-c1cccc(C(F)(F)F)c1
79 to 81 °C	CCc1ccc(OC(=O)c2ccccc2)c(C(=O)c2ccc(Cl)cc2)c1
123 to 125 °C	CC(=O)c1c(-c2ccccc2)nn(CC2CC2)c(=O)c1Nc1cccc2cccnc12
209 to 210 °C	COc1cc(NC(=O)Nc2ccc(N3CCN(C(=O)Nc4ccc(OCCO)cc4C(F)(F)F)CC3)cc2)cc(OC)c1
85 to 105 °C	CCCCN1CCC(N(Cc2ccc(Nc3ccnc4ccccc34)cc2)C(C)=O)CC1
183 to 184 °C	COc1nnc2n1C=Cc1ccccc1C2c1ccccc1 (stereo not drawn)
101 °C	COc1ccc(Nc2nc(Cl)cc3ccccc23)cc1
130 to 131 °C	O=S(=O)(c1ccc(Cl)cc1)C(c1cccnc1)c1cc(F)ccc1F (stereo not drawn)
106 to 108 °C	COC(=O)C(=Cc1cc(OC)cc(OC)c1)c1ccc(O)cc1
188 to 189 °C	CC(C)(C)c1cc(C(c2ccccc2)N(O)C(N)=O)cc(C(C)(C)C)c1O (stereo not drawn)
158 to 160 °C	CSc1cc2c(cc1C(F)(F)F)N(C(=O)Nc1ccc(C(=O)Nc3ccncc3)cc1)CC2
106 to 108 °C	COc1cccc(/C=C/C(=O)/C=C/c2cccc(OC)c2OC)c1OC
152 to 153 °C	COc1ccccc1N=Nc1ncc[nH]1
88 to 90 °C	CO[C@]1(c2cccc(OCc3ccc4c(ccc(=O)n4C)c3)c2)CCO[C@@H](C)C1
187 to 189 °C	CN1CCC(c2nn(C(=O)c3ccc(Cl)c(Cl)c3)c3ccccc23)CC1
248 to 249 °C	Cc1c(Cc2cccnc2)sc2cc(C(=O)O)ccc12
70 to 72 °C	COC(=O)Oc1cc(NC(=O)OCc2ccccc2)c(F)cc1Cl
